Measured values as given in patent US10865216B2, “Tricyclic Gyrase inhibitors” (MERCK SHARP & DOHME CORP., priority 2012, dated 2020).
Values after ≈ are worked out from the molar mass of the structure shown.

Columns and labels:
E. coli ATCC 25922 = assay: MIC, E. coli ATCC 25922; type: cell-based; details: for MIC: Escherichia coli, ATCC25922, E. coli, Alamar Blue read after overnight incubation at 35° C., read-out: MIC Ec; for MIC Ec: Table 18, Ec
S. aureus ATCC 13709 = assay: MIC, S. aureus ATCC 13709; type: cell-based; details: for MIC: Staphylococcus aureus, ATCC13709, S. aureus, Alamar Blue read after overnight incubation at 35° C., read-out: MIC Sa; for MIC Sa: Table 18, Sa

SMILES	MIC (E. coli ATCC 25922)	MIC (S. aureus ATCC 13709)	MIC Ec (E. coli ATCC 25922)	MIC Sa (S. aureus ATCC 13709)
CNc1cccc2c1[nH]c1nc(Oc3cncnc3)nc(Oc3cncnc3)c12 [Compound 8.1]	> 64 µg/mL	2 µg/mL (≈ 5.18 µM)	–	–
CNc1cccc2c1[nH]c1nc(Oc3cnc(C)nc3)nc(Oc3cnc(C)nc3)c12 [Compound 8.2]	> 32 µg/mL	1 µg/mL (≈ 2.41 µM)	–	–
CNc1cccc2c1[nH]c1nc(Oc3ccc[n+]([O-])c3)nc(Oc3cnc(C)nc3)c12 [Compound 8.3]	64 µg/mL (≈ 154 µM)	2 µg/mL (≈ 4.81 µM)	–	–
CNc1cccc2c1[nH]c1nc(Oc3cnc(N)nc3)nc(Oc3cnc(N)nc3)c12 [Compound 8.4]	> 64 µg/mL	8 µg/mL (≈ 19.2 µM)	–	–
CNc1cc(F)cc2c1[nH]c1nc(Sc3nncs3)nc(N3C[C@H]4C[C@@H]3C[C@H]4N)c12 [Compound 10.11]	–	–	≤ 0.5 µg/mL	≤ 0.5 µg/mL
CNc1cc(F)cc2c1[nH]c1nc(Oc3cnc4ccnn4c3)nc(N3CC[C@]4(C[C@@H]4N)C3)c12 [Compound 10.12]	–	–	≤ 0.5 µg/mL	≤ 0.5 µg/mL
CNc1cc(F)cc2c1[nH]c1nc(Oc3cnc4ccnn4c3)nc(N3C[C@H]4CCN[C@H]4C3)c12 [Compound 10.13]	–	–	≤ 0.5 µg/mL	≤ 0.5 µg/mL
CNc1cc(F)cc2c1[nH]c1nc(Oc3cnc4ccoc4c3)nc(N3C[C@H]4CCN[C@H]4C3)c12 [Compound 10.14]	–	–	≤ 0.5 µg/mL	≤ 0.5 µg/mL
CNc1cc(F)cc2c1[nH]c1nc(Oc3cnc(C(C)O)c(Cl)c3)nc(N3C[C@H]4C[C@@H]3C[C@H]4N)c12 (stereo partly shown) [Compound 10.15]	–	–	≤ 0.5 µg/mL	≤ 0.5 µg/mL
CNc1cc(F)cc2c1[nH]c1nc(Oc3cnc(C(C)O)c(Cl)c3)nc(N3CC4CCNC4C3)c12 (stereo not shown) [Compound 10.16]	–	–	≤ 0.5 µg/mL	≤ 0.5 µg/mL
CNc1cc(F)cc2c1[nH]c1nc(Oc3cnc(C(C)O)c(Cl)c3)nc(N3CC4C[C@@H](N)C4C3)c12 (stereo partly shown) [Compound 10.17]	–	–	≤ 0.5 µg/mL	≤ 0.5 µg/mL
CNc1cc(F)cc2c1[nH]c1nc(Oc3cnc4ccnn4c3)nc(N3C[C@@H]4[C@H](N)C[C@]4(C)C3)c12 [Compound 10.18]	–	–	≤ 0.5 µg/mL	≤ 0.5 µg/mL
CNc1cc(F)cc2c1[nH]c1nc(Oc3cnc4c(C)cnn4c3)nc(N3C[C@H]4C[C@@H]3C[C@H]4N)c12 [Compound 10.19]	–	–	≤ 0.5 µg/mL	≤ 0.5 µg/mL
CNc1cc(F)cc2c1[nH]c1nc(Oc3cnc4c(C)cnn4c3)nc(N3C[C@H](N)C4(CC4)C3)c12 [Compound 10.20]	–	–	≤ 0.5 µg/mL	≤ 0.5 µg/mL
CNc1cc(F)c(F)c2c1[nH]c1nc(Oc3cnc4ccnn4c3)nc(N3C[C@H]4C[C@@H]3C[C@H]4N)c12 [Compound 10.21]	–	–	≤ 0.5 µg/mL	≤ 0.5 µg/mL
CNc1cc(F)cc2c1[nH]c1nc(Oc3ccn4ccnc4c3)nc(N3C[C@H]4C[C@@H]3C[C@H]4N)c12 [Compound 10.22]	–	–	≤ 0.5 µg/mL	≤ 0.5 µg/mL
CNc1cc(F)cc2c1[nH]c1nc(Oc3cnc4c(Cl)cnn4c3)nc(N3C[C@H]4C[C@@H]3C[C@H]4N)c12 [Compound 10.23]	–	–	≤ 0.5 µg/mL	≤ 0.5 µg/mL
CNc1cc(F)cc2c1[nH]c1nc(Oc3cnc4c(C)cnn4c3)nc(N3C[C@H]4CCN[C@H]4C3)c12 [Compound 10.24]	–	–	≤ 0.5 µg/mL	≤ 0.5 µg/mL
CNc1cc(F)c(F)c2c1[nH]c1nc(Oc3cnc([C@H](C)O)nc3)nc(N3C[C@H]4C[C@@H]3C[C@H]4N)c12 [Compound 10.25]	–	–	≤ 0.5 µg/mL	≤ 0.5 µg/mL
CNc1cc(F)c(F)c2c1[nH]c1nc(Oc3cnc4c(C)cnn4c3)nc(N3C[C@H]4C[C@@H]3C[C@H]4N)c12 [Compound 10.26]	–	–	≤ 0.5 µg/mL	≤ 0.5 µg/mL
CNc1cc(F)cc2c1[nH]c1nc(Oc3cnc(/C(C)=N/OC)nc3)nc(N3C[C@H]4C[C@@H]3C[C@H]4N)c12 [Compound 10.27]	–	–	≤ 0.5 µg/mL	≤ 0.5 µg/mL
CNc1cc(F)c(F)c2c1[nH]c1nc(Oc3cnc4ccnn4c3)nc(N3C[C@H]4C[C@@H](N)[C@H]4C3)c12 [Compound 10.28]	–	–	≤ 0.5 µg/mL	≤ 0.5 µg/mL
CNc1cc(F)cc2c1[nH]c1nc(Oc3cnc(C(C)O)c(F)c3)nc(N3C[C@H]4C[C@@H]3C[C@H]4N)c12 (stereo partly shown) [Compound 10.29]	–	–	≤ 0.5 µg/mL	≤ 0.5 µg/mL

Results, then the compound that gave them:

MIC (E. coli ATCC 25922)	MIC (S. aureus ATCC 13709)	MIC Ec (E. coli ATCC 25922)	MIC Sa (S. aureus ATCC 13709)	SMILES
–	–	≤ 0.5 µg/mL	≤ 0.5 µg/mL	CNc1cc(F)cc2c1[nH]c1nc(Oc3cnc4c(C)cnn4c3)nc(N3CC4C[C@@H](N)C4C3)c12 (stereo partly shown) [Compound 10.30]
–	–	≤ 0.5 µg/mL	≤ 0.5 µg/mL	CNc1cc(F)c(F)c2c1[nH]c1nc(Oc3cnc([C@@H](C)O)nc3)nc(N3CC4NCC[C@@H]4C3)c12 (stereo partly shown) [Compound 10.31]
–	–	≤ 0.5 µg/mL	≤ 0.5 µg/mL	CNc1cc(F)c(F)c2c1[nH]c1nc(Oc3cnc(C)nc3)nc(N3CC4NCC[C@@H]4C3)c12 (stereo partly shown) [Compound 10.32]
–	–	≤ 0.5 µg/mL	≤ 0.5 µg/mL	CNc1cc(Cl)cc2c1[nH]c1nc(Oc3cnc(C(C)O)nc3)nc(N3C[C@H]4C[C@@H]3C[C@H]4N)c12 (stereo partly shown) [Compound 10.33]
–	–	≤ 0.5 µg/mL	≤ 0.5 µg/mL	CNc1cc(F)cc2c1[nH]c1nc(Oc3cnc4scnc4c3)nc(N3C[C@H]4C[C@@H]3C[C@H]4N)c12 [Compound 10.34]
–	–	≤ 0.5 µg/mL	≤ 0.5 µg/mL	CNc1cc(F)cc2c1[nH]c1nc(Oc3cnc4c(F)cnn4c3)nc(N3C[C@H]4C[C@@H]3C[C@H]4N)c12 [Compound 10.35]
–	–	≤ 0.5 µg/mL	≤ 0.5 µg/mL	CNc1cc(F)cc2c1[nH]c1nc(Oc3cnc4cc(C5CC5)nn4c3)nc(N3C[C@H]4C[C@@H]3C[C@H]4N)c12 [Compound 10.36]
–	–	≤ 0.5 µg/mL	≤ 0.5 µg/mL	CNc1cc(Cl)cc2c1[nH]c1nc(Oc3cnc4ccnn4c3)nc(N3C[C@H]4C[C@@H]3C[C@H]4N)c12 [Compound 10.37]
–	–	≤ 0.5 µg/mL	≤ 0.5 µg/mL	CNc1cc(F)cc2c1[nH]c1nc(Sc3nc4cccnc4[nH]3)nc(N3C[C@H]4C[C@@H]3C[C@H]4N)c12 [Compound 10.38]
–	–	≤ 0.5 µg/mL	≤ 0.5 µg/mL	CNc1cc(F)cc2c1[nH]c1nc(Oc3cnc4c(C)cnn4c3)nc(N3CC4C(N)C4C3)c12 (stereo not shown) [Compound 10.40]
–	–	≤ 0.5 µg/mL	≤ 0.5 µg/mL	CNc1cc(F)cc2c1[nH]c1nc(Nc3cnc(C)nc3)nc(N3C[C@H]4C[C@@H]3C[C@H]4N)c12 [Compound 10.41]
–	–	1 µg/mL (≈ 2.01 µM)	≤ 0.5 µg/mL	CCOC(=O)c1csc(Nc2nc(N3C[C@H]4C[C@@H]3C[C@H]4N)c3c(n2)[nH]c2c(NC)cc(F)cc23)n1 [Compound 10.42]
–	–	1 µg/mL (≈ 1.99 µM)	≤ 0.5 µg/mL	CNc1cc(F)cc2c1[nH]c1nc(Nc3cnc4c(c3)nnn4C(C)C)nc(N3C[C@H]4C[C@@H]3C[C@H]4N)c12 [Compound 10.43]
–	–	≤ 0.5 µg/mL	≤ 0.5 µg/mL	CNc1cc(F)cc2c1[nH]c1nc(Nc3cccnc3)nc(N3C[C@H]4C[C@@H]3C[C@H]4N)c12 [Compound 10.44]
–	–	≤ 0.5 µg/mL	≤ 0.5 µg/mL	CNc1cc(F)cc2c1[nH]c1nc(Nc3cnc4ccnn4c3)nc(N3C[C@H]4C[C@@H]3C[C@H]4N)c12 [Compound 10.45]
–	–	≤ 0.5 µg/mL	≤ 0.5 µg/mL	CNc1cc(F)cc2c1[nH]c1nc(Nc3cnn4ccnc4c3)nc(N3C[C@H]4C[C@@H]3C[C@H]4N)c12 [Compound 10.46]
–	–	8 µg/mL (≈ 19 µM)	1 µg/mL (≈ 2.38 µM)	CNc1cc(F)cc2c1[nH]c1nc(Cc3cnn(C)c3)nc(N3C[C@H]4C[C@@H]3C[C@H]4N)c12 [Compound 10.47]

MIC (E. coli ATCC 25922)	MIC (S. aureus ATCC 13709)	MIC Ec (E. coli ATCC 25922)	MIC Sa (S. aureus ATCC 13709)	SMILES
–	–	16 µg/mL (≈ 37 µM)	8 µg/mL (≈ 18.5 µM)	CNc1cc(F)cc2c1[nH]c1nc(NCc3cccnc3)nc(N3C[C@H]4C[C@@H]3C[C@H]4N)c12 [Compound 10.48]
–	–	2 µg/mL (≈ 4.45 µM)	≤ 0.5 µg/mL	CNc1cc(F)cc2c1[nH]c1nc(SCc3cccnc3)nc(N3C[C@H]4C[C@@H]3C[C@H]4N)c12 [Compound 10.49]
–	–	≤ 0.5 µg/mL	≤ 0.5 µg/mL	CNc1cc(F)cc2c1[nH]c1nc(Oc3ccc4ccnn4c3)nc(N3C[C@H]4C[C@@H]3C[C@H]4N)c12 [Compound 10.50]
–	–	16 µg/mL (≈ 37 µM)	4 µg/mL (≈ 9.25 µM)	CNc1cc(F)cc2c1[nH]c1nc(NCc3cccnc3)nc(N3C[C@H]4C[C@@H]3C[C@H]4N)c12 [Compound 10.51]
–	–	≤ 0.5 µg/mL	≤ 0.5 µg/mL	CNc1cc(F)cc2c1[nH]c1nc(Oc3ccc4ccnn4c3)nc(N3C[C@H]4CCN[C@H]4C3)c12 [Compound 10.52]
–	–	≤ 0.5 µg/mL	≤ 0.5 µg/mL	CNc1cc(F)cc2c1[nH]c1nc(Oc3ccc4ccnn4c3)nc(N3C[C@H]4C[C@@H](N)[C@H]4C3)c12 [Compound 10.53]
–	–	≤ 0.5 µg/mL	≤ 0.5 µg/mL	CNc1cc(F)cc2c1[nH]c1nc(Oc3cnc(C)nc3)nc(N3CCOCC3)c12 [Compound 10.54]
–	–	1 µg/mL (≈ 1.99 µM)	≤ 0.5 µg/mL	CNc1cc(F)cc2c1[nH]c1nc(Oc3cnc4c(C(C)O)cnn4c3)nc(N3C[C@H]4C[C@@H]3C[C@H]4N)c12 (stereo partly shown) [Compound 10.55]
–	–	≤ 0.5 µg/mL	≤ 0.5 µg/mL	CNc1cc(F)cc2c1[nH]c1nc(Oc3cnc4ccnn4c3)nc(N3CC4(CCC4N)C3)c12 (stereo not shown) [Compound 10.56]
–	–	≤ 0.5 µg/mL	≤ 0.5 µg/mL	CNc1cc(F)cc2c1[nH]c1nc(Oc3ccc4ccnn4c3)nc(N3CC4(CCC4N)C3)c12 (stereo not shown) [Compound 10.57]
–	–	≤ 0.5 µg/mL	≤ 0.5 µg/mL	CNc1cc(F)cc2c1[nH]c1nc(Oc3cnc([C@@H](C)O)nc3)nc(N3CC4(CC[C@H]4N)C3)c12 [Compound 10.59]
–	–	16 µg/mL (≈ 35.8 µM)	8 µg/mL (≈ 17.9 µM)	CNc1cc(F)cc2c1[nH]c1nc(NCc3cnc(C)nc3)nc(N3C[C@H]4C[C@@H]3C[C@H]4N)c12 [Compound 10.60]
–	–	2 µg/mL (≈ 4.46 µM)	0.03 µg/mL (≈ 0.0669 µM)	CNc1cc(F)cc2c1[nH]c1nc(Oc3cnc(C)nc3)nc(N3CC4(CC/C4=N\O)C3)c12 [Compound 10.61]
–	–	≤ 0.5 µg/mL	≤ 0.5 µg/mL	CNc1cc(F)cc2c1[nH]c1nc(Oc3cnn4ccnc4c3)nc(N3C[C@H]4C[C@@H]3C[C@H]4N)c12 [Compound 10.62]
–	–	≤ 0.5 µg/mL	≤ 0.5 µg/mL	CNc1cc(F)cc2c1[nH]c1nc(Oc3cnc(C(C)O)nc3)nc(N3C[C@@H]4[C@H](N)C(F)[C@@H]4C3)c12 (stereo partly shown) [Compound 10.63]
–	–	≤ 0.5 µg/mL	≤ 0.5 µg/mL	CNc1cc(F)c(Cl)c2c1[nH]c1nc(Oc3cnc(C)nc3)nc(N3C[C@H]4CCN[C@H]4C3)c12 [Compound 10.64]
